Experimental data taken from the supplement of paper PMC5908809.

Assays:
KHYG-1 (IL-2 2.5 ng/mL) [1] = test: percent inhibition of viability; higher = more inhibition; conditions: 72 h
[2] = tested on: normal primary NK cells, pool 2 (3 donors) (IL-2 2.5 ng/mL); test: as above; conditions: 72 h
DERL-7 (IL-2 2.5 ng/mL) [3] = test: as above; conditions: 72 h
NKL (IL-2 2.5 ng/mL) [4] = test: as above; conditions: 72 h
KAI3 (IL-2 2.5 ng/mL) [5] = test: as above; conditions: 72 h
NK-92 (IL-2 2.5 ng/mL) [6] = test: as above; conditions: 72 h
YT (IL-2 2.5 ng/mL) [7] = test: as above; conditions: 72 h
[8] = tested on: normal primary NK cells, pool 3 (3 donors) (IL-2 2.5 ng/mL); test: as above; conditions: 72 h
SNK-6 (IL-2 2.5 ng/mL) [9] = test: as above; conditions: 72 h
[10] = tested on: normal primary NK cells, pool 1 (3 donors), resting (IL-2 0 ng/mL); test: as above; conditions: 72 h
IMC-1 (IL-2 20 ng/mL) [11] = test: as above; conditions: 72 h
NK-YS (IL-2 2.5 ng/mL) [12] = test: as above; conditions: 72 h
[13] = tested on: normal primary NK cells, pool 1 (3 donors) (IL-2 2.5 ng/mL); test: as above; conditions: 72 h
[14] = tested on: normal NK cells expanded with K562-aAPC; test: drug sensitivity score (DSS) (DSS units); higher = more sensitive; extreme values may be limits of the assay; conditions: 72 h; IL-2 2.5 ng/mL
Procedure: (§1)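 Drug sensitivity and resistance testing on K562-aAPC-expanded normal NK cells: 5 concentrations (10-fold steps over a 10,000-fold range), 72 h at 37 °C, viability by CellTiter-Glo normalised to DMSO and benzethonium chloride controls; DSS from the fitted curve.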

KHYG-1 (IL-2 2.5 ng/mL) [15] = test: as above; conditions: 72 h
[16] = tested on: normal primary NK cells, pool 2 (3 donors) (IL-2 2.5 ng/mL); test: as above; conditions: 72 h
DERL-7 (IL-2 2.5 ng/mL) [17] = test: as above; conditions: 72 h
NKL (IL-2 2.5 ng/mL) [18] = test: as above; conditions: 72 h
KAI3 (IL-2 2.5 ng/mL) [19] = test: as above; conditions: 72 h
NK-92 (IL-2 2.5 ng/mL) [20] = test: as above; conditions: 72 h
YT (IL-2 2.5 ng/mL) [21] = test: as above; conditions: 72 h
[22] = tested on: normal primary NK cells, pool 3 (3 donors) (IL-2 2.5 ng/mL); test: as above; conditions: 72 h
SNK-6 (IL-2 2.5 ng/mL) [23] = test: as above; conditions: 72 h
[24] = tested on: normal primary NK cells, pool 1 (3 donors), resting (IL-2 0 ng/mL); test: as above; conditions: 72 h
IMC-1 (IL-2 20 ng/mL) [25] = test: as above; conditions: 72 h
NK-YS (IL-2 2.5 ng/mL) [26] = test: as above; conditions: 72 h
[27] = tested on: normal primary NK cells, pool 1 (3 donors) (IL-2 2.5 ng/mL); test: as above; conditions: 72 h
[28] = tested on: normal NK cells expanded with K562-aAPC; test: percent inhibition of viability; higher = more inhibition; conditions: 72 h, IL-2 2.5 ng/mL
Procedure: as §1

CC[C@@H]1C(=O)N(C)c2cnc(Nc3ccc(C(=O)NC4CCN(C)CC4)cc3OC)nc2N1C1CCCC1 [BI 2536] (max concentration tested 1000 nM)
percent inhibition of viability [%]
Conditions	0.1 nM	1 nM	10 nM	100 nM	1000 nM
DERL-7 (IL-2 2.5 ng/mL) [3]	-1.78	1.66	56.8	99.1	96.4
IMC-1 (IL-2 20 ng/mL) [11]	-3.03	-6.74	26.6	96.7	95.2
KAI3 (IL-2 2.5 ng/mL) [5]	-2.84	1.84	32	55.7	52.9
KHYG-1 (IL-2 2.5 ng/mL) [1]	-0.33	-0.33	11.5	101	102
NK-92 (IL-2 2.5 ng/mL) [6]	-10.3	-5.85	41.7	99.6	91.2
NK-YS (IL-2 2.5 ng/mL) [12]	1.37	3.08	22.7	66.2	58.4
NKL (IL-2 2.5 ng/mL) [4]	-16.1	-17.7	34.5	66.8	64.5
SNK-6 (IL-2 2.5 ng/mL) [9]	3.37	2.93	50.7	61.7	48.1
YT (IL-2 2.5 ng/mL) [7]	-0.96	-1.95	5.23	77.8	74.1
[2]	-11.8	-7.85	-1.58	7	58.2
[8]	-15.6	-13.3	-7.87	-2.57	41.2
[10]	4.96	13.2	-4.79	-10.2	31.4
[13]	-8.51	7.02	-5.03	-6.42	36.1
[28]	1.03	0.31	20.1	60.1	67.4

Conditions	drug sensitivity score
DERL-7 (IL-2 2.5 ng/mL) [17]	24.6
IMC-1 (IL-2 20 ng/mL) [25]	21.4
KAI3 (IL-2 2.5 ng/mL) [19]	14.1
KHYG-1 (IL-2 2.5 ng/mL) [15]	19.9
NK-92 (IL-2 2.5 ng/mL) [20]	23.4
NK-YS (IL-2 2.5 ng/mL) [26]	15.2
NKL (IL-2 2.5 ng/mL) [18]	16.6
SNK-6 (IL-2 2.5 ng/mL) [23]	17.8
YT (IL-2 2.5 ng/mL) [21]	15
[14]	13.5
[16]	4.32
[22]	1.86
[24]	0.98
[27]	1.36

Nc1nc(F)nc2c1ncn2[C@@H]1O[C@H](CO)[C@@H](O)[C@@H]1O [Fludarabine] (max concentration tested 10000 nM)
percent inhibition of viability [%]
Conditions	1 nM	10 nM	100 nM	1000 nM	10000 nM
DERL-7 (IL-2 2.5 ng/mL) [3]	-6.18	-6.69	2.47	-9.31	74.8
IMC-1 (IL-2 20 ng/mL) [11]	-8.37	2.44	-0.32	0.25	53.5
KAI3 (IL-2 2.5 ng/mL) [5]	-10.9	-7.43	-11.6	10.9	97.9
KHYG-1 (IL-2 2.5 ng/mL) [1]	-3.8	-1.74	-3.07	5.53	82.9
NK-92 (IL-2 2.5 ng/mL) [6]	-5.82	-19.1	-10.8	24.7	101
NK-YS (IL-2 2.5 ng/mL) [12]	-7.11	-1.12	-0.69	4.05	12.8
NKL (IL-2 2.5 ng/mL) [4]	-18.8	-16.5	-2.27	56.9	100
SNK-6 (IL-2 2.5 ng/mL) [9]	18.4	33.8	24.8	32.5	28
YT (IL-2 2.5 ng/mL) [7]	-2.12	0.54	0.43	-2.19	4.14
[2]	-15.8	-12	5.13	47.7	93
[8]	-13.2	-7.62	3.81	29.6	90.2
[10]	-2.66	-18.7	10.1	65.3	89.5
[13]	6.23	-6.78	8.3	45.7	93.6
[28]	-4.55	-1.76	-0.86	67.3	100

Conditions	drug sensitivity score
DERL-7 (IL-2 2.5 ng/mL) [17]	3.52
IMC-1 (IL-2 20 ng/mL) [25]	2.89
KAI3 (IL-2 2.5 ng/mL) [19]	7.22
KHYG-1 (IL-2 2.5 ng/mL) [15]	5.42
NK-92 (IL-2 2.5 ng/mL) [20]	9.32
NK-YS (IL-2 2.5 ng/mL) [26]	0.32
NKL (IL-2 2.5 ng/mL) [18]	12.3
SNK-6 (IL-2 2.5 ng/mL) [23]	7.06
YT (IL-2 2.5 ng/mL) [21]	0
[14]	13.3
[16]	10.8
[22]	9.07
[24]	13.5
[27]	10.6
